Kd and ΔTm data for 1 compound are collected here from doi:10.1101/2025.11.28.691146v1 (biorxiv, 2025).

For experiment [1], the target named is T1, McrA (Streptomyces lavendulae, UniProt P43485).
T1 sequence (P43485 1-448): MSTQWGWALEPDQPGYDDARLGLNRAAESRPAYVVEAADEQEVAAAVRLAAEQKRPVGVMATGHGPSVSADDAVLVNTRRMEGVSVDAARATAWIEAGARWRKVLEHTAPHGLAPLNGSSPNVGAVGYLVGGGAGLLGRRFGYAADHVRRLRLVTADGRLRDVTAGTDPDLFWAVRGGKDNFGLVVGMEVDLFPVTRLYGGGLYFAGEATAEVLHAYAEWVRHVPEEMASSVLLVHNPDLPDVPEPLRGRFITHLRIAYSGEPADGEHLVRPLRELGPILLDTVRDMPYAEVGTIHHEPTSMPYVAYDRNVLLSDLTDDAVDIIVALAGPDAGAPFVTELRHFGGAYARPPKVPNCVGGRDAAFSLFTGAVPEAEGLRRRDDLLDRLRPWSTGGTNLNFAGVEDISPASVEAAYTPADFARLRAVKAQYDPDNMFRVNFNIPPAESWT
Put plainly: microscale thermophoresis. The class given is binding.

Experiment [2] deals with T1, McrA. Put plainly: thermal shift, label-free intrinsic fluorescence. The class given is binding. As to conditions: read-out: dTm at 1 mM.

For `CO[C@@]12[C@H](COC(N)=O)C3=C(C(=O)C(C)=C(N)C3=O)N1C[C@@H]1N[C@@H]12` [mitomycin C], the Kd – broadly, a measure of binding affinity in units of concentration – on McrA [1] was found to be 15.9 ± 4.5 µM. In addition, the ΔTm at 1000 µM at McrA [2] stood at 0.5 °C.
